Test results from publication PMC7855930, “Nontoxic Cobalt(III) Schiff Base Complexes with Broad‐Spectrum Antifungal Activity” (Chemistry (Weinheim an Der Bergstrasse, Germany), 2020).
Converted amounts (≈) assume the structure as drawn. Read-outs that look alike come from different tables or passages of the source. Starred links: 1 amine or outer side, 2 acyl side, 3 side chain; linkers in the order of their positions; H or OH if unused. Positions of bridges follow the written chain, without caps; N, C: chain ends. Non-standard residues stand in square brackets, D forms with d. Residues, ends and D or L forms follow the SMILES beside them. *: point of attachment. hTyr(3S-OH,4S-OH,3'-OSO3H) = N[C@H](C(=O)O)[C@H](O)[C@@H](O)c1ccc(O)c(OS(=O)(=O)O)c1; Orn(4R-OH,5R-OH) = O=C([C@H](C[C@@H](O)[C@@H](O)N[*:3])N[*:1])[*:2]; Pro(3S-OH,4S-Me) = C[C@H]1CN[C@H](C(=O)O)[C@H]1O; X1 = CCCCCOc1ccc(-c2cc(-c3ccc(C(=O)*)cc3)no2)cc1; Gln(3R-OH) = NC(=O)C[C@@H](O)[C@H](N)C(=O)O; Hyp = O=C(O)[C@@H]1C[C@@H](O)CN1

Experiments:
[1] = test system: C. albicans ATCC 90028; assay: Antifungal MIC assay (broth microdilution in YNB); format: cell-based, Candida albicans; conditions: Candida albicans
Text: (§1) Yeast strains: Candida albicans (ATCC 90028, NCCLS 11), Cryptococcus neoformans (ATCC 208821, H99 type strain), Candida tropicalis (ATCC 750, type strain), Candida glabrata (ATCC 90030, NCCLS 84) and Cryptococcus deuterogattii (ATCC 32609, type strain) were obtained from the American Type Culture Collection (ATCC). Cryptococcus deuterogattii (CBS 7750), Candida auris (CBS 10913) and Candida auris (CBS 12373) were obtained from the CBS‐KNAW culture collection. The strains were maintained on glycerol/YPD (yeast extract‐peptone dextrose) broth (20:80 v/v) at −80 °C.
(§2) Antifungal minimum inhibitory concentration (MIC) assay: The cobalt complexes and antifungal control compounds were serially diluted in 50 μL of Yeast Nitrogen Broth (YNB; BD, Cat No. 233520 supplemented with 2 % glucose and 10 mM ammonium sulfate) two‐fold across the wells of non‐binding surface (NBS) 96‐well plates (Corning; Cat. No. 3641). Plates were set up in quadruplicate for each strain tested, and two biological replicates were conducted on separate assay days.
(§3) Yeast strains were cultured from glycerol onto YPD (Becton Dickinson 242720) agar at 30 °C for 72 h. For each strain, a minimum of five single colonies were taken from the agar plate and dissolved in sterile water and adjusted to form a yeast suspension of 1×10^6 to 5×10^6 CFU mL^−1 (as determined by OD530). The suspension was subsequently diluted into YNB media, and added to each well of the compound containing plates, giving a final cell density of 2.5×10^3 CFU mL^−1 and a total volume of 100 μL. Plates were covered and incubated at 35 °C for 36 h without shaking.
(§4) Growth inhibition of all strains was determined visually where the MIC was recorded as the lowest compound concentration with no visible growth. Fluconazole (Sigma F8929), ketoconazole (Sigma K1003) and micafungin (Sigma SML2288) were used as internal positive inhibitor controls for every strain tested.

[2] = test system: C. auris CBS 10913; assay: Antifungal MIC assay (broth microdilution in YNB); format: cell-based, Candida auris; conditions: Candidozyma auris
Text: as §1, §2, §3, §4

[3] = test system: C. auris CBS 12373; assay: Antifungal MIC assay (broth microdilution in YNB); format: cell-based, Candida auris; conditions: Candidozyma auris
Text: as §1, §2, §3, §4

[4] = test system: C. glabrata ATCC 90030; assay: Antifungal MIC assay (broth microdilution in YNB); format: cell-based, Candida glabrata; conditions: Nakaseomyces glabratus
Text: as §1, §2, §3, §4

[5] = test system: C. tropicalis ATCC 750; assay: Antifungal MIC assay (broth microdilution in YNB); format: cell-based, Candida tropicalis; conditions: Candida tropicalis
Text: as §1, §2, §3, §4

[6] = test system: C. deuterogattii ATCC 32609; assay: Antifungal MIC assay (broth microdilution in YNB); format: cell-based, Cryptococcus deuterogattii; conditions: Cryptococcus deuterogattii
Text: as §1, §2, §3, §4

[7] = test system: C. deuterogattii CBS 7750; assay: Antifungal MIC assay (broth microdilution in YNB); format: cell-based, Cryptococcus deuterogattii; conditions: Cryptococcus deuterogattii
Text: as §1, §2, §3, §4

[8] = test system: C. neoformans ATCC 208821; assay: Antifungal MIC assay (broth microdilution in YNB); format: cell-based, Cryptococcus neoformans; conditions: Cryptococcus neoformans
Text: as §1, §2, §3, §4

[9] = test system: Staphylococcus aureus ATCC 43300 (MRSA); assay: CO-ADD bacterial broth microdilution MIC assay; format: cell-based; conditions: Staphylococcus aureus, 18 h, read-out: MIC Sa (Staphylococcus aureus ATCC 43300, MRSA)
Experimental: (§5) CO-ADD High Throughput Screening
(§6) Bacterial broth microdilution minimum inhibitory concentration (MIC) assay Bacterial strains were cultured in Cation-adjusted Mueller Hinton broth (CAMHB; Bacto Laboratories 212322) at 37 °C overnight. A sample of each culture was then diluted 40-fold in fresh CAMHB and incubated at 37 °C for 1.5-3 h. The resultant mid-log phase cultures were diluted with CAMHB (CFU/mL measured by OD600), then added to each well of the compound-containing plates (384-well non-binding surface (NBS) plates; Corning CLS3640), giving a cell density of 5 × 10^5 CFU/mL and a total volume of 50 µL. Plates were covered and incubated at 37 °C for 18 h without shaking. Inhibition of bacterial growth was determined measuring absorbance at 600 nm (OD600), using media only as negative control and bacteria without inhibitors as positive control. MIC values were determined as the lowest concentration at which the growth was inhibited at ≥ 80%. Colistin sulfate (Sigma C4461) and vancomycin HCl (Sigma 861987) were used as positive inhibitor controls on each plate for Gram-negative and Gram-positive bacteria, respectively.
(§7) Figure S1. 1H NMR (400 MHz) of [Co(ATS)(DMAP)2]NO3 (3) in DMSO-d6.
(§8) (1 picture or pasted object on this page, not shown here)

[10] = test system: Acinetobacter baumannii ATCC 19606; assay: CO-ADD bacterial broth microdilution MIC assay; format: cell-based; conditions: CAMHB, 37 °C, 18 h, ≥ 80% inhibition
Experimental: as §5, §6, §7, §8

[11] = test system: Escherichia coli ATCC 25922; assay: CO-ADD bacterial broth microdilution MIC assay; format: cell-based; conditions: CAMHB, 37 °C, 18 h, ≥ 80% inhibition
Experimental: as §5, §6, §7, §8

[12] = test system: Pseudomonas aeruginosa ATCC 27853; assay: CO-ADD bacterial broth microdilution MIC assay; format: cell-based; conditions: CAMHB, 37 °C, 18 h, ≥ 80% inhibition
Experimental: as §5, §6, §7, §8

[13] = test system: Klebsiella pneumoniae ATCC 700603 (K6; ESBL SHV-18); format: cell-based; conditions: CAMHB, 37 °C, 18 h, ≥ 80% inhibition
Experimental: as §5, §6, §7, §8

[14] = ATCC90028, Table S1, read-out: MIC Candida albicans ATCC 90028
[15] = ATCC90028, range of MICs, n=8, 35 °C, 36 h, visual, read-out: MIC C. albicans ATCC 90028
[16] = CBS10913, Table S1, read-out: MIC Candida auris CBS 10913
[17] = CBS10913, range of MICs, n=8, 35 °C, 36 h, visual, read-out: MIC C. auris CBS 10913
[18] = CBS12373, Table S1, read-out: MIC Candida auris CBS 12373
[19] = CBS12373, range of MICs, n=8, 35 °C, 36 h, visual, read-out: MIC C. auris CBS 12373
[20] = ATCC90030, Table S1, read-out: MIC Candida glabrata ATCC 90030
[21] = ATCC90030, range of MICs, n=8, 35 °C, 36 h, visual, read-out: MIC C. glabrata ATCC 90030
[22] = ATCC750, Table S1, read-out: MIC Candida tropicalis ATCC 750
[23] = ATCC750, range of MICs, n=8, 35 °C, 36 h, visual, read-out: MIC C. tropicalis ATCC 750
[24] = ATCC32609, Table S1, read-out: MIC Cryptococcus deuterogattii ATCC 32609
[25] = ATCC32609, range of MICs, n=8, 35 °C, 36 h, visual, read-out: MIC C. deuterogattii ATCC 32609
[26] = CBS7750, Table S1, read-out: MIC Cryptococcus deuterogattii CBS 7750
[27] = CBS7750, range of MICs, n=8, 35 °C, 36 h, visual, read-out: MIC C. deuterogattii CBS 7750
[28] = ATCC208821, Table S1, read-out: MIC Cryptococcus neoformans ATCC 208821
[29] = ATCC208821, range of MICs, n=8, 35 °C, 36 h, visual, read-out: MIC C. neoformans ATCC 208821

Row | Molecule | MIC [1, 14] [µg/mL] | MIC [1, 15] [µM] | MIC [2, 16] [µg/mL] | MIC [2, 17] [µM] | MIC [3, 18] [µg/mL] | MIC [3, 19] [µM] | MIC [4, 20] [µg/mL] | MIC [4, 21] [µM] | MIC [5, 22] [µg/mL] | MIC [5, 23] [µM] | MIC [6, 24] [µg/mL] | MIC [6, 25] [µM] | MIC [7, 26] [µg/mL] | MIC [7, 27] [µM] | MIC [8, 28] [µg/mL] | MIC [8, 29] [µM] | also measured
1 | OC(Cn1cncn1)(Cn1cncn1)c1ccc(F)cc1F [FCZ, Fluconazole, reference compound] | 2 | 6.53 | 16 | 52.2 | > 64 | > 209 | > 64 | > 209 | > 64 | > 209 | 8 to 16 | 26.1 to 52.2 | 8 | 26.1 | 16 | 52.2 | 
2 | CC(=O)N1CCN(c2ccc(OCC3COC(Cn4ccnc4)(c4ccc(Cl)cc4Cl)O3)cc2)CC1 (stereo not shown) [KCZ, Ketoconazole, reference compound] | 0.5 | ≤ 0.94 | 0.5 | ≤ 0.94 | 2 | 3.76 | 32 | 60.2 | 16 | 30.1 | 1 | 1.88 | 0.5 to 1 | 0.94 to 1.88 | 1 to 2 | 1.88 to 3.76 | 
3 | CCCCCOc1ccc(-c2cc(-c3ccc(C(=O)N[C@H]4C[C@@H](O)[C@@H](O)NC(=O)[C@@H]5[C@@H](O)[C@@H](C)CN5C(=O)[C@H]([C@H](O)CC(N)=O)NC(=O)[C@H]([C@H](O)[C@@H](O)c5ccc(O)c(OS(=O)(=O)O)c5)NC(=O)[C@@H]5C[C@@H](O)CN5C(=O)[C@H]([C@@H](C)O)NC4=O)cc3)no2)cc1 [MFG, Micafungin, reference compound] (X1-[Orn(4R-OH,5R-OH)]T[Hyp][hTyr(3S-OH,4S-OH,3'-OSO3H)][Gln(3R-OH)][Pro(3S-OH,4S-Me)]; lactam 1-C) |  |  |  |  |  |  |  |  |  |  |  |  |  |  |  |  | MIC ([1]; ATCC90028, 36 h, read-out: MIC C. albicans ATCC 90028): ≤ 0.39 µM; MIC ([1]; ATCC90028, read-out: MIC Candida albicans ATCC 90028): 0.5 µg/mL; MIC ([2]; CBS10913, 36 h, read-out: MIC C. auris CBS 10913): ≤ 0.39 µM; MIC ([3]; CBS12373, 36 h, read-out: MIC C. auris CBS 12373): ≤ 0.39 µM; MIC ([3]; CBS12373, read-out: MIC Candida auris CBS 12373): 0.5 µg/mL; MIC ([4]; ATCC90030, 36 h, read-out: MIC C. glabrata ATCC 90030): ≤ 0.39 µM; MIC ([4]; ATCC90030, read-out: MIC Candida glabrata ATCC 90030): 0.5 µg/mL; MIC ([5]; ATCC750, 36 h, read-out: MIC C. tropicalis ATCC 750): ≤ 0.39 µM; MIC ([5]; ATCC750, read-out: MIC Candida tropicalis ATCC 750): 0.5 µg/mL; MIC ([6]; ATCC32609, 36 h, read-out: MIC C. deuterogattii ATCC 32609): > 49.5 µM; MIC ([6]; ATCC32609, read-out: MIC Cryptococcus deuterogattii ATCC 32609): > 64 µg/mL; MIC ([7]; CBS7750, 36 h, read-out: MIC C. deuterogattii CBS 7750): > 49.5 µM; MIC ([7]; CBS7750, read-out: MIC Cryptococcus deuterogattii CBS 7750): > 64 µg/mL; MIC ([8]; ATCC208821, 36 h, read-out: MIC C. neoformans ATCC 208821): > 49.5 µM; MIC ([8]; ATCC208821, read-out: MIC Cryptococcus neoformans ATCC 208821): > 64 µg/mL
4 | CN[C@H](CC(C)C)C(=O)N[C@H]1C(=O)N[C@@H](CC(N)=O)C(=O)N[C@H]2C(=O)N[C@H]3C(=O)N[C@H](C(=O)N[C@H](C(=O)O)c4cc(O)cc(O)c4-c4cc3ccc4O)[C@H](O)c3ccc(c(Cl)c3)Oc3cc2cc(c3O[C@@H]2O[C@H](CO)[C@@H](O)[C@H](O)[C@H]2O[C@H]2C[C@](C)(N)[C@H](O)[C@H](C)O2)Oc2ccc(cc2Cl)[C@H]1O [Van, Vancomycin, reference compound] |  |  |  |  |  |  |  |  |  |  |  |  |  |  |  |  | MIC [9]: 1 µg/mL (≈ 0.69 µM)
5 | Colistin [reference compound] |  |  |  |  |  |  |  |  |  |  |  |  |  |  |  |  | MIC Ab (Acinetobacter baumannii ATCC 19606) [10]: 0.25 µg/mL; MIC Ec (Escherichia coli ATCC 25922) [11]: 0.125 µg/mL; MIC Pa (Pseudomonas aeruginosa ATCC 27853) [12]: 0.25 µg/mL; MIC Kp (Klebsiella pneumoniae ATCC 700603) [13]: 0.25 µg/mL
